The test system of data set [1] is NB4 human promyelocytic leukaemia. Kind of data set: Cytotoxicity on NB4 tumour cells (sulphorodamine B). Format: cell-based. The protocol: (§1) To test the effects of the compounds on cell growth, NB4 human promyelocytic leukaemia, NCI-H460 non-small cell carcinoma cells and HCT-116 human colon carcinoma cells were used. NB4 and NCI-H460 tumour cells were grown RPMI 1640 containing 10% fetal bovine serum (GIBCO), whereas HCT-116 tumour cells were grown in McCoy's 5A containing 10% fetal bovine serum (GIBCO).
(§2) Tumour cells were seeded in 96-well tissue culture plates (Corning) at approximately 10% confluence and were allowed to attach and recover for at least 24 h. […] The plates were incubated for 24 h at 37° C. At the end of the treatment, for NB4 tumour cells in suspension, the procedure was performed as follows: medium culture was removed by centrifugation of the plates at 1600×g for 10 min and the surnatant was removed. 250 μl PBS were added, then the plates were centrifuged at 1600×g for 10 min, the surnatant was removed. 200 μl/well of medium culture RPMI 1640 containing 10% FCS were added and the plates were incubated at 37° C. for other 48 h. The plates were centrifuged again at 1600×g for 10 min, the medium culture was removed and 200 μl PBS and 50 μl of cold 80% TCA were added. The plates were incubated on ice for at least 1 h. TCA was removed, the plates were washed 3 times for immersion in distilled-water and dried on paper and at 40° C. for 5 min. Then 200 μl of 0.4% sulphorodamine B in 1% acetic acid were added. The plates were incubated at room temperature for other 30 min. Sulphorodamine B was removed, the plates were washed for immersion in 1% acetic acid for 3 times, then they were dried on paper and at 40° C. for 5 min. Then 200 μl Tris 10 mM were added, the plates were kept under stirring for 20 min. The survival cell was determined as optical density by a Multiskan spectrofluorimeter at 540 nm. For the tumour cells in adhesion (NCI-H460 and HCT-116), the procedure was as above mentioned, except that at the end of the treatment, the plates were washed by remotion of the surnatant and addition of PBS 3 times without centrifugation. Also the last day of the assay, the surnatant was removed without centrifugation.
(§3) The amount of cells killed was calculated as the percentage decrease in sulphorodamine B binding compared with control cultures.

For data set [2], the system named is NCI-H460 non-small cell carcinoma cells. In words: Cytotoxicity on NCI-H460 tumour cells (sulphorodamine B). In kind it is cell-based, human. The note with it: for IC50: 24 h treatment, then other 48 h in drug-free medium, sulphorodamine B; for cytotoxic effect on survival of NCI-H460 tumour cells (in words): comparison among the compounds. The protocol: as §1, §2, §3

Data set [3] concerns HCT-116 human colon carcinoma cells. Kind of data set: Cytotoxicity on HCT-116 tumour cells (sulphorodamine B). Format: cell-based. The settings on record: read-out: IC50 ± SD, HCT-116 (concentration which inhibits the 50% of cell survival), 24 h treatment, then other 48 h in drug-free medium. The protocol:
as §1, §2, §3

Where [4] appears, read: Homo sapiens, read-out: IC50 ± SD, NB4 (concentration which inhibits the 50% of cell survival), NB4 tumour cells, 24 h treatment, then other 48 h in drug-free medium.
Where [5] appears, read: read-out: IC50 ± SD, NB4 (concentration which inhibits the 50% of cell survival), NB4 tumour cells, 24 h treatment, then other 48 h in drug-free medium.
The mark [6] stands for this setting: Homo sapiens, NCI-H460, read-out: IC50 ± SD, NCI-H460 (concentration which inhibits the 50% of cell survival), NCI-H460 tumour cells.

Counter-ions that a name gives are not always drawn. Like-named read-outs stand apart in the source and are kept apart here.

`O=C(/C=C/c1ccc2[nH]ccc2c1)NO` [ST2880, (2E)-N-hydroxy-3-(1H-indol-5-yl)acrylamide]: the IC50 in data set [1] (setting [4]) is 1400 to 2900 nM; in data set [1] (setting [5]), 1800 ± 20 nM; in data set [2] (setting [6]), 5900 ± 500 nM; in data set [3] (Homo sapiens), 2700 ± 300 nM. In addition, the “cytotoxic effect on survival of NCI-H460 tumour cells (in words)” value (from here on “cytotoxic effect on survival”) in data set [2] (NCI-H460 tumour cells) was “minor cytotoxic effect”.

`O=C(/C=C/c1ccc(C=NOc2ccccc2)cc1)NO` [ST2985, (2E)-N-hydroxy-3-{4-[(phenoxyimino)methyl]phenyl}acrylamide]: the IC50 was 1400 to 2900 nM in data set [1] (setting [4]), 2700 ± 90 nM in data set [1] (setting [5]), 5100 ± 300 nM in data set [2] (setting [6]) and 3700 ± 400 nM in data set [3] (Homo sapiens). For the same compound, the “cytotoxic effect on survival” value in data set [2] (NCI-H460 tumour cells) is recorded as “minor cytotoxic effect”.

`O=C(/C=C/c1ccc(C=NOCc2ccc([N+](=O)[O-])cc2)cc1)NO` [ST2987, (2E)-N-hydroxy-3-[4-({[(4-nitrobenzyl)oxy]imino}-methyl)phenyl]acrylamide]: the IC50 in data set [1] (setting [4]) is 600 to 800 nM; in data set [1] (setting [5]) it was 800 ± 10 nM; in data set [2] (setting [6]) it was 2600 ± 100 nM; in data set [3] (Homo sapiens) it was 1200 ± 200 nM.

As to `O=C(/C=C/c1ccc(C=NNC(=O)c2ccc(Cl)cc2)cc1)NO` [ST2888, (2E)-N-hydroxy-3-(4-{[(4-chlorobenzoyl)hydrazono]-methyl}phenyl)acrylamide], the IC50 in data set [1] (setting [4]) is 600 to 800 nM; in data set [1] (setting [5]), 800 ± 20 nM; in data set [2] (setting [6]) it was 3400 ± 300 nM; in data set [3] (Homo sapiens), 1800 ± 100 nM.

For `COC(=O)c1ccc(CON=Cc2ccc(/C=C/C(=O)NO)cc2)cc1` [ST3049, (2E)-N-hydroxy-3-[4-({[(4-methoxycarbonylbenzyl)oxy]imino}-methyl)phenyl]-acrylamide], the IC50 in data set [1] (setting [4]) was 600 to 800 nM; in data set [1] (setting [5]) it was 800 ± 90 nM; in data set [2] (setting [6]), 1700 ± 100 nM; in data set [3] (Homo sapiens) it was 1700 ± 100 nM.

For the compound `O=C(/C=C/c1ccc(C=NO)cc1)NO` [ST2983, (2E)-N-hydroxy-3-{4-[(hydroxyimino)methyl]phenyl}acrylamide], the IC50 came to 6300 ± 400 nM in data set [2] (setting [6]) and 3500 ± 300 nM in data set [3] (Homo sapiens). Also, the “cytotoxic effect on survival” value in data set [2] (NCI-H460 tumour cells) is “minor cytotoxic effect”.

Consider `O=C(/C=C/c1ccc(C=NOCc2c(F)c(F)c(F)c(F)c2F)cc1)NO` [ST2986, (2E)-N-hydroxy-3-[4-({[(pentafluorobenzyl)oxy]imino}-methyl)phenyl]-acryl-amide], for which the IC50 was 700 ± 70 nM in data set [1] (setting [5]); 1600 ± 70 nM in data set [2] (read-out: IC50 ± SD, NCI-H460 (concentration which inhibits the 50% of cell survival), NCI-H460 tumour cells); 2400 ± 100 nM in data set [3].

On to `O=C(CCc1ccc(C=NOCc2ccc([N+](=O)[O-])cc2)cc1)NO` [ST3330, N-hydroxy-3-[4-({[(4-nitrobenzyl)oxy]imino}methyl)phenyl]propanamide], for which the IC50 came out at 950 ± 60 nM in data set [1] (setting [4]), 7700 ± 1000 nM in data set [2] (setting [6]) and 3100 ± 100 nM in data set [3] (Homo sapiens). Moreover, the “cytotoxic effect on survival” value in data set [2] (NCI-H460 tumour cells) is recorded as “minor cytotoxic effect”.

Turning to `O=C(O)/C=C/c1ccc(C=NOCc2ccccc2)cc1` [ST3076, (2E)-3-(4-{[(benzyloxy)imino]methyl}phenyl)acrylic acid], the IC50 in data set [1] (setting [4]) and in data set [3] (Homo sapiens) was > 20000 nM each time.

Consider `Nc1ccccc1NC(=O)/C=C/c1ccc(C=NOCc2ccc([N+](=O)[O-])cc2)cc1` [ST3070, (2E)-N-(2-aminophenyl)-3-[4-({[(4-nitrobenzyl)oxy]imino}-methyl)phenyl]-acrylamide], for which the values for the IC50 in data set [1] (setting [4]), in data set [2] (setting [6]) and in data set [3] (Homo sapiens) were > 20000 nM, 200000 nM and 33400 ± 3900 nM, respectively.

Take `Nc1ccccc1NC(=O)/C=C/c1ccc(C=NOCCN2CCOCC2)cc1` [ST3573, (2E)-N-(2-Amino-phenyl)-3-{4-[(2-morpholin-4-yl-ethoxyimino)methyl]-phenyl}-acrylamide hydrochloride]: the IC50 in data set [1] (setting [4]) is 8870 ± 600 nM; in data set [2] (setting [6]), > 20000 nM; in data set [3] (Homo sapiens), > 20000 nM.

As for `O=C(/C=C/c1ccc(C=NOCCN2CCOCC2)cc1)NO` [ST3050, (2E)-N-hydroxy-3-{4-[(2-morpholin-4-ylethoxyimino)methyl]-phenyl}-acryl-amide], the IC50 in data set [1] (setting [4]) was 1400 to 2900 nM; in data set [1] (setting [5]) it was 1700 ± 200 nM; in data set [2] (setting [6]), 2900 ± 400 nM; in data set [3] (Homo sapiens), 1800 ± 100 nM.

For `Cl.O=C(/C=C/c1cccc(C=NOCCN2CCOCC2)c1)NO` [ST3576, (2E)-N-hydroxy-3-{3-[(2-morpholin-4-ylethoxyimino)methyl]-phenyl}-acryl-amide hydrochloride], the IC50 in data set [1] (setting [4]) is 1400 to 2900 nM; in data set [1] (read-out: IC50 ± SD, NB4 (concentration which inhibits the 50% of cell survival), NB4 tumour cells, 24 h treatment, then other 48 h in drug-free medium, hydrochloride), 1890 ± 80 nM; in data set [2] (setting [6]), 6600 ± 800 nM; in data set [3] (Homo sapiens), 4000 ± 500 nM. The “cytotoxic effect on survival” value in data set [2] (NCI-H460 tumour cells) is “minor cytotoxic effect”.

With `O=C(O)/C=C/c1ccc(C=NOCc2ccc([N+](=O)[O-])cc2)cc1` [ST3075, (2E)-3-[4-({[(4-nitrobenzyl)oxy]imino}-methyl)phenyl]acrylic acid], the IC50 in data set [1] (setting [4]) was > 20000 nM; in data set [2] (setting [6]), 21300 ± 3000 nM; in data set [3] (Homo sapiens), > 20000 nM.

For `O=C(/C=C/c1ccc(C=NOCc2ccccc2)cc1)NO` [ST2840, (2E)-3-(4-{[(benzyloxy)imino]methyl}phenyl)-N-hydroxyacrylamide], the IC50 in data set [1] (setting [4]) is 600 to 800 nM; in data set [1] (setting [5]), 600 ± 6 nM; in data set [2] (setting [6]), 1600 ± 100 nM; in data set [3] (Homo sapiens), 2800 ± 200 nM.

In the case of `C=CCON=Cc1ccc(/C=C/C(=O)NO)cc1` [ST2984, (2E)-N-hydroxy-3-(4-{[(allyloxy)imino]methyl}phenyl)acrylamide], the IC50 in data set [1] (setting [4]) is 1400 to 2900 nM; in data set [1] (setting [5]) it was 1400 ± 70 nM; in data set [2] (setting [6]), 3200 ± 90 nM; in data set [3] (Homo sapiens), 3500 ± 70 nM.
